# Data taken from US6706757B2, “Chroman derivatives as 5-hydroxytryptamine-6 ligands” (Wyeth, priority 2001, dated 2004).
# Structures can show the parent of a compound that is named as a salt.
# Molecular target: T1, human cloned 5-HT6 receptors (Homo sapiens, UniProt P50406)
# T1 construct: expressed in transfected cells; host or cells: HeLa cells (membrane preparation)
# Experiment: 5-HT6 binding affinity, [3H]-LSD displacement on membranes of Hela cells expressing human cloned 5-HT6 receptors
# Settings: [3H]-LSD 3.0 nM, Hela cell membranes, 120 min at room temperature
# Procedure: The affinity of test compounds for the serotonin 5-HT6 receptor is evaluated in the following manner. Cultured Hela cells expressing human cloned 5-HT6 receptors are harvested and centrifuged at low speed (1,000×g) for 10.0 min to remove the culture media. The harvested cells are suspended in half volume of fresh physiological phosphate buffered saline solution and recentrifuged at the same speed. This operation is repeated. The collected cells are then homogenized in ten volumes of 50 mM Tris.HCl (pH 7.4) and 0.5 mM EDTA. The homogenate is centrifuged at 40,000×g for 30.0 min and the precipitate is collected. The obtained pellet is resuspended in 10 volumes of Tris.HCl buffer and recentrifuged at the same speed. The final pellet is suspended in a small volume of Tris.HCl buffer and the tissue protein content is determined in aliquots of 10-25 μl volumes. Bovine Serum Albumin is used as the standard in the protein determination according to the method described in Lowry et al., J. Biol. Chem., 193:265 (1951). The volume of the suspended cell membranes is adjusted to give a tissue protein concentration of 1.0 mg/ml of suspension. The prepared membrane suspension (10 times concentrated) is aliquoted in 1.0 ml volumes and stored at −70° C. until used in subsequent binding experiments.
# Binding experiments are performed in a 96 well microtiter plate format, in a total volume of 200 μl. […] The test compounds are added in 20.0 μl volume.
# The reaction is allowed to proceed in the dark for 120 min at room temperature, at which time, the bound ligand-receptor complex is filtered off on a 96 well unifilter with a Packard Filtermate® 196 Harvester. The bound complex caught on the filter disk is allowed to air dry and the radioactivity is measured in a Packard TopCount® equipped with six photomultiplier detectors, after the addition of 40.0 μl Microscint®-20 scintillant to each shallow well. The unifilter plate is heat-sealed and counted in a PackardTopCount® with a tritium efficiency of 31.0%.
# Binding in the presence of varying concentrations of test compound is expressed as a percentage of specific binding in the absence of test compound. The results are plotted as log % bound versus log concentration of test compound. […] A linear regression line of data points is plotted, from which the IC50 value is determined and the Ki value is determined based upon the following equation: […]
# where L is the concentration of the radioactive ligand used and KD is the dissociation constant of the ligand for the receptor, both expressed in nM.
# T1 sequence (P50406 whole entry): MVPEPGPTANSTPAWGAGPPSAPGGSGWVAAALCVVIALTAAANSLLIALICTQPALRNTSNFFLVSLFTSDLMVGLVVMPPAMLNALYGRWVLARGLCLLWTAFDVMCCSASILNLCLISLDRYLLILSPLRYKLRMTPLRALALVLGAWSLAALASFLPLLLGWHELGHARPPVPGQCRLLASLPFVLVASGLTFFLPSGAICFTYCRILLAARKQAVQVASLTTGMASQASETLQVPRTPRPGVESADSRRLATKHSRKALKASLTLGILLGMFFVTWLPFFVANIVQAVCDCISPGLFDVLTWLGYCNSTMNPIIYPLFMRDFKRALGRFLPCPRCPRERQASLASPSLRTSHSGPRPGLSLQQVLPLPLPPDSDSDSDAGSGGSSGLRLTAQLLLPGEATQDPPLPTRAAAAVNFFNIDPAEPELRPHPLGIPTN
row,Ki [nM],Structure (SMILES)
1,5,"O=S(=O)(Nc1ccc2c(c1)OC(CNCCCO)CC2)c1ccccc1 (centres unmarked) [Example 5, N-{2-[(3-Hydroxypropylamino)-methyl]chroman-7-yl}benzenesulfonamide Hemifumarate salt]"
2,4,"COc1cccc(CNCC2CCc3ccc(NS(=O)(=O)c4ccccc4)cc3O2)c1 (centres unmarked) [Example 6, N-(2-{[(3-methoxybenzyl)amino]methyl}-3,4-dihydro-2H-chromen-7-yl)benzenesulfonamide]"
3,2,"O=S(=O)(Nc1ccc2c(c1)OC(CNCc1ccccc1)CC2)c1ccccc1 (centres unmarked) [Example 8, N-{2-[(benzylamino)methyl]-3,4-dihydro-2H-chromen-7-yl}benzenesulfonamide]"
4,2,"O=S(=O)(Nc1ccc2c(c1)OC(CNCCCOc1ccccc1)CC2)c1ccccc1 (centres unmarked) [Example 9, N-(2-{[(3-phenoxypropyl)amino]methyl}-3,4-dihydro-2H-chromen-7-yl)benzenesulfonamide]"
5,1,"C[C@@H](NCC1CCc2ccc(NS(=O)(=O)c3ccccc3)cc2O1)c1ccccc1 (stereo partly drawn) [Example 10, N-[2-({[(1R)-1-phenylethyl]amino}methyl)-3,4-dihydro-2H-chromen-7-yl]benzenesulfonamide]"
6,2,"O=S(=O)(Nc1ccc2c(c1)OC(CNCc1ccc3c(c1)OCO3)CC2)c1ccccc1 (centres unmarked) [Example 11, N-(2-{[(1,3-benzodioxol-5-ylmethyl)amino]methyl}-3,4-dihydro-2H-chromen-7-yl)benzenesulfonamide]"
7,5,"O=S(=O)(Nc1ccc2c(c1)OC(CNCc1cccnc1)CC2)c1ccccc1 (centres unmarked) [Example 12, N-(2-{[(pyridin-3-ylmethyl)amino]methyl}-3,4-dihydro-2H-chromen-7-yl)benzenesulfonamide]"
8,7,"O=S(=O)(Nc1ccc2c(c1)OC(CNC1CCc3ccccc31)CC2)c1ccccc1 (centres unmarked) [Example 13, N-{2-[(2,3-dihydro-1H-inden-1-ylamino)methyl]-3,4-dihydro-2H-chromen-7-yl}benzenesulfonamide]"
9,10,"C[C@H](NCC1CCc2ccc(NS(=O)(=O)c3ccccc3)cc2O1)c1ccccc1 (stereo partly drawn) [Example 14, N-[2-({[(1S)-1-phenylethyl]amino}methyl)-3,4-dihydro-2H-chromen-7-yl]benzenesulfonamide]"
10,17,"O=S(=O)(Nc1ccc2c(c1)OC(CNCc1ccncc1)CC2)c1ccccc1 (centres unmarked) [Example 15, N-(2-{[(pyridin-4-ylmethyl)amino]methyl}-3,4-dihydro-2H-chromen-7-yl)benzenesulfonamide]"
11,5,"O=S(=O)(Nc1ccc2c(c1)OC(CN[C@@H](CO)c1ccccc1)CC2)c1ccccc1 (stereo partly drawn) [Example 16, N-[2-({[(1R)-2-hydroxy-1-phenylethyl]amino}methyl)-3,4-dihydro-2H-chromen-7-yl]benzenesulfonamide]"
12,84,"O=S(=O)(Nc1ccc2c(c1)OC(CNC(Cc1ccccc1)c1ccccc1)CC2)c1ccccc1 (centres unmarked) [Example 17, N-(2-{[(1,2-diphenylethyl)amino]methyl}-3,4-dihydro-2H-chromen-7-yl)benzenesulfonamide]"
13,41,"CC(C)(CO)NCC1CCc2ccc(NS(=O)(=O)c3ccccc3)cc2O1 (centres unmarked) [Example 18, N-(2-{[(2-hydroxy-1,1-dimethylethyl)amino]methyl}-3,4-dihydro-2H-chromen-7-yl)benzenesulfonamide]"
14,16,"CC(C)NCC1CCc2ccc(NS(=O)(=O)c3ccccc3)cc2O1 (centres unmarked) [Example 19, N-{2-[(isopropylamino)methyl]-3,4-dihydro-2H-chromen-7-yl}benzenesulfonamide]"
15,6,"CC(CCc1ccccc1)NCC1CCc2ccc(NS(=O)(=O)c3ccccc3)cc2O1 (centres unmarked) [Example 20, N-(2-{[(1-methyl-3-phenylpropyl)amino]methyl}-3,4-dihydro-2H-chromen-7-yl)benzenesulfonamide]"
16,8,"CC(C)CCCC(C)NCC1CCc2ccc(NS(=O)(=O)c3ccccc3)cc2O1 (centres unmarked) [Example 21, N-(2-{[(1,5-dimethylhexyl)amino]methyl}-3,4-dihydro-2H-chromen-7-yl)benzenesulfonamide]"

row,Ki [nM],Structure (SMILES)
1,3,"CC(C)C[C@H](CO)NCC1CCc2ccc(NS(=O)(=O)c3ccccc3)cc2O1 (stereo partly drawn) [Example 22, N-[2-({[(1R)-1-(hydroxymethyl)-3-methylbutyl]amino}methyl)-3,4-dihydro-2H-chromen-7yl]benzenesulfonamide]"
2,35,"O=S(=O)(Nc1ccc2c(c1)OC(CN1CCCCC1CCO)CC2)c1ccccc1 (centres unmarked) [Example 23, N-(2-{[2-(2-hydroxyethyl)piperidin-1-yl]methyl}-3,4-dihydro-2H-chromen-7-yl)benzenesulfonamide]"
3,72,"CC1CCCC(C)N1CC1CCc2ccc(NS(=O)(=O)c3ccccc3)cc2O1 (centres unmarked) [Example 24, N-{2-[(2,6-dimethylpiperidin-1-yl)methyl]-3,4-dihydro-2H-chromen-7-yl}benzenesulfonamide]"
4,26,"O=S(=O)(Nc1ccc2c(c1)OC(CN1CCOCC1)CC2)c1ccccc1 (centres unmarked) [Example 25, N-[2-(morpholin-4-ylmethyl)-3,4-dihydro-2H-chromen-7-yl]benzenesulfonamide]"
5,9,"O=S(=O)(Nc1ccc2c(c1)OC(CN1CCSCC1)CC2)c1ccccc1 (centres unmarked) [Example 26, N-[2-(thiomorpholin-4-ylmethyl)-3,4-dihydro-2H-chromen-7-yl]benzenesulfonamide]"
6,7,"C[C@@H](NCC1CCc2ccc(NS(=O)(=O)c3ccccc3)cc2O1)C1CCCCC1 (stereo partly drawn) [Example 27, N-[2-({[(1R)-1-cyclohexylethyl]amino}methyl)-3,4-dihydro-2H-chromen-7-yl]benzenesulfonamide]"
7,5,"O=S(=O)(Nc1ccc2c(c1)OC(CNCCCO)CC2)c1ccc2ccccc2c1 (centres unmarked) [Example 28, N-(2-{[(3-Hydroxypropyl)amino]methyl}-3,4-dihydro-2H-chromen-7-yl)naphthalene-2-sulfonamide]"
8,39,"COc1ccc(S(=O)(=O)Nc2ccc3c(c2)OC(CNCCCO)CC3)cc1 (centres unmarked) [Example 29, N-(2-{[(3-hydroxypropyl)amino]methyl}-3,4-dihydro-2H-chromen-7-yl)-4-methoxybenzenesulfonamide]"
9,49,"O=S(=O)(Nc1ccc2c(c1)OC(CNCCCO)CC2)c1ccc(F)cc1 (centres unmarked) [Example 30, 4-fluoro-N-(2-{[(3-hydroxypropyl)amino]methyl}-3,4-dihydro-2H-chromen-7-yl)benzenesulfonamide]"
10,11,"O=S(=O)(Nc1ccc2c(c1)OC(CNCCCO)CC2)c1ccc(Cl)cc1 (centres unmarked) [Example 31, 4-chloro-N-(2-{[(3-hydroxypropyl)amino]methyl}-3,4-dihydro-2H-chromen-7-yl)benzenesulfonamide]"
11,5,"C[C@@H](NCC1CCc2ccc(NS(=O)(=O)c3cccc4nonc34)cc2O1)c1ccccc1 (stereo partly drawn) [Example 32, N-[2-({[(1R)-1-Phenylethyl]amino}methyl)-3,4-dihydro-2H-chromen-7-yl]-2,1,3-benzoxadiazole-4-sulfonamide]"
12,3,"C[C@@H](NCC1CCc2ccc(NS(=O)(=O)c3c(Cl)nc4sccn34)cc2O1)c1ccccc1 (stereo partly drawn) [Example 33, 6-chloro-N-[2-({[(1R)-1-phenylethyl]amino}methyl)-3,4-dihydro-2H-chromen-7-yl]imidazo[2,1-b][1,3]thiazole-5-sulfonamide]"
13,5,"C[C@@H](NCC1CCc2ccc(NS(=O)(=O)c3ccc(Br)s3)cc2O1)c1ccccc1 (stereo partly drawn) [Example 34, 5-bromo-N-[2-({[(1R)-1-phenylethyl]amino}methyl)-3,4-dihydro-2H-chromen-7-yl]-2-thiophenesulfonamide]"
14,7,"CC(=O)Nc1nc(C)c(S(=O)(=O)Nc2ccc3c(c2)OC(CN[C@H](C)c2ccccc2)CC3)s1 (stereo partly drawn) [Example 35, N-[4-methyl-5-({[2-({[(1R)-1-phenylethyl]amino}methyl)-3,4-dihydro-2H-chromen-7-yl]amino}sulfonyl)-1,3-thiazol-2-yl]acetamide]"
15,45,"Cc1c(S(=O)(=O)Nc2ccc3c(c2)OC(CN[C@H](C)c2ccccc2)CC3)sc2ccc(Cl)cc12 (stereo partly drawn) [Example 36, 5-chloro-3-methyl-N-[2-({[(1R)-1-phenylethyl]amino}methyl)-3,4-dihydro-2H-chromen-7-yl]-1-benzothiophene-2-sulfonamide]"

row,Structure (SMILES),Ki [nM]
1,"CCCCOCCCNCC1CCc2ccc(NS(=O)(=O)c3ccccc3)cc2O1 (centres unmarked) [Example 7, N-(2-{[(3-butoxypropyl)amino]methyl}-3,4-dihydro-2H-chromen-7-yl)benzenesulfonamide]",2
